{"source": "patent US20220144826A1", "about": "“Heteroaromatic and Heterobicyclic Aromatic Derivatives for the Treatment of Ferroptosis-Related Disorders” (COLLABORATIVE MEDICINAL DEVELOPMENT, LLC, priority 2019, published 2022)", "data": [{"system": "N27 rat dopaminergic neural cells", "experiment": "MTT assay in N27 rat dopaminergic neural cells: inhibition of RSL3-induced cell death (ferroptosis)", "type": "cell-based", "settings": "Rattus norvegicus, N27, 24 h, ferroptosis induced by 0.5 μM RSL3, 24 hours, viability by MTT", "procedure": "MTT Assay in N27 Rat Dopaminergic Neural Cells\nN27 rat dopaminergic neural cells (Millipore, SCC048) were cultured in RPMI-1640 media (Wisent, 350-000) supplemented with 1×GlutaMAX (Gibco, 35050-061), 10% FBS (embryonic stem cell qualified; Wisent, 920-040), and 1× Penicillin-Streptomycin (Wisent, 450-201). Cells were grown in humidified tissue culture incubator at 37° C. with 5% CO2, for up to 10 passages. To evaluate the ability of test compounds to inhibit RSL3-induced cell death, N27 cells were seeded in clear 96-well tissue culture plates (Sarstedt, 83.3924) at a density of 15,000 cells/well. On the next day, the medium was changed to fresh complete RPMI-1640. Eight-point dilution series of test compounds were added to the cells. Then, ferroptosis was induced by addition of 0.5 μM RSL3 (vehicle-treated cells served as control). Ferrostatin-1 (Fer-1) was included in each assay as control inhibitor of ferroptosis. Plates were incubated for 24 hours at 37° C. in a tissue culture incubator, then cell viability was determined by MTT assay. Briefly, Thiazolyl Blue Tetrazolium Bromide [3-(4,5-dimethylthiazol-2-yl)-2,5-diphenyltetrazolium bromide or “MTT” ] (Sigma) stock solution (5 mg/mL in PBS, sterilized by filtration) was diluted 1:1 with complete growth medium, and added on the cells to a final concentration of 0.5 mg/mL. Cells were incubated with MTT for 4 hours at 37° C., protected from light, in a humidified, 5% CO2 atmosphere. Medium was then completely removed from the wells by gentle aspiration and converted MTT formazan crystals were dissolved in 150 μL of DMSO. Absorbance of converted dye was measured at 595 nm with background subtraction at 690 nm using the BioTek Cytation5 Microplate Reader. Blank reading (absorbance from wells containing media and vehicle only, no cells) was removed from all sample wells. Viability was calculated as a percentage of control cells (vehicle-treated cells were set as 100% viability). Dose-response curves were drawn and IC50 values were calculated using GraphPad Prism software, version 7.", "units": {"IC50": "nM"}, "values": [{"smiles": "CC(C)(C)Nc1ccc(-c2ccncc2)nc1NC1CCCC1", "note": "[Compound L-04, N^3-tert-butyl-N^2-cyclopentyl-6-(4-pyridyl)pyridine-2,3-diamine]", "IC50": 5}, {"smiles": "CCC(C)Nc1ccc(-c2ccccn2)nc1NC1(C)CCOC1", "note": "[Compound L-22, N^2-(3-methyltetrahydrofuran-3-yl)-6-(2-pyridyl)-N^3-sec-butyl-pyridine-2,3-diamine]", "IC50": 14}, {"smiles": "CC1(Nc2nc(-c3ccccn3)ccc2NC2CCOC2)CCOC1", "note": "[Compound L-23, N^2-(3-methyltetrahydrofuran-3-yl)-6-(2-pyridyl)-N^3-tetrahydrofuran-3-yl-pyridine-2,3-diamine]", "IC50": 141}, {"smiles": "CCCC(=O)c1ccc(NC(C)CC)c(NC2CCCC2)n1", "note": "[Compound L-34, 1-[6-(cyclopentylamino)-5-(sec-butylamino)-2-pyridyl]butan-1-one]", "IC50": 21}, {"smiles": "CC1(Nc2nc(-c3cccnc3)ccc2NC2CCOC2)CCOC1", "note": "[Compound L-42, N^2-(3-methyltetrahydrofuran-3-yl)-6-(3-pyridyl)-N^3-tetrahydrofuran-3-yl-pyridine-2,3-diamine]", "IC50": 285}, {"smiles": "CC1(Nc2nc(-c3ccc(F)cc3)nc3c2NCCC3)CCOC1", "note": "(centres unmarked) [Compound M-14, 2-(4-fluorophenyl)-N-(3-methyltetrahydrofuran-3-yl)-5,6,7,8-tetrahydropyrido[3,2-d]pyrimidin-4-amine]", "IC50": 29}, {"smiles": "CC1(Nc2nc(-c3ccc(F)cc3)ccc2NC2CCOC2)CCOC1", "note": "(centres unmarked) [Compound M-23, 6-(4-fluorophenyl)-N^2-(3-methyltetrahydrofuran-3-yl)-N^3-tetrahydrofuran-3-yl-pyridine-2,3-diamine]", "IC50": "3 to 6"}, {"smiles": "CC1(Nc2nc(-c3ccc(F)cc3)ccc2NC2CCOCC2)CCOC1", "note": "(centres unmarked) [Compound N-53, 6-(4-fluorophenyl)-N^2-(3-methyltetrahydrofuran-3-yl)-N^3-tetrahydropyran-4-yl-pyridine-2,3-diamine]", "IC50": 1}, {"smiles": "CCC(C)Nc1ccc(-c2ccncc2)nc1NC(C)(C)C", "note": "(centres unmarked) [Compound P-22]", "IC50": 1}, {"smiles": "CCCC(=O)c1ccc(N)c(NC2CC(F)(F)C2)n1", "note": "[Compound P-46, 1-[5-amino-6-[(3,3-difluorocyclobutyl)amino]-2-pyridyl]butan-1-one]", "IC50": 498}, {"smiles": "CCCC(=O)c1ccc(NC2CC(F)(F)C2)c(NC2CC(F)(F)C2)n1", "note": "[Compound P-47, 1-[5,6-bis[(3,3-difluorocyclobutyl)amino]-2-pyridyl]butan-1-one]", "IC50": 201}, {"smiles": "CN(C)C(=O)c1ccc(-c2ccc(NC3CCC3)c(NC3(C)CCOC3)n2)cc1", "note": "(centres unmarked) [Compound P-53, 4-[5-(cyclobutylamino)-6-[(3-methyltetrahydrofuran-3-yl)amino]-2-pyridyl]-N,N-dimethyl-benzamide]", "IC50": 24}, {"smiles": "CC1(Nc2nc(-c3ccc(F)cc3)ccc2NC2CCC2)CCOC1", "note": "(centres unmarked) [Compound P-54, N^3-cyclobutyl-6-(4-fluorophenyl)-N^2-(3-methyltetrahydrofuran-3-yl)pyridine-2,3-diamine]", "IC50": 3}, {"smiles": "CC1(Nc2nc(-c3ccncc3)nc3c2NCCC3)CCOC1", "note": "(centres unmarked) [Compound P-71, N-(3-methyltetrahydrofuran-3-yl)-2-(4-pyridyl)-5,6,7,8-tetrahydropyrido[3,2-d]pyrimidin-4-amine]", "IC50": 463}, {"smiles": "CCCCC(=O)c1cc2c(c(NC3CCOC3)c1)NCCC2", "note": "(centres unmarked) [Compound Q-879, 1-[8-(tetrahydrofuran-3-ylamino)-1,2,3,4-tetrahydroquinolin-6-yl]pentan-1-one]", "IC50": 16.8}, {"smiles": "CC1=Nc2cc(C#N)ccc2NC1(C)C", "note": "[Compound Q-912, 2,2,3-trimethyl-1H-quinoxaline-6-carbonitrile]", "IC50": "> 3000"}, {"smiles": "CCCCC(=O)c1cc2c(c(-c3ccncc3)c1)NCCC2", "note": "[Compound Q-950, 1-[8-(4-pyridyl)-1,2,3,4-tetrahydroquinolin-6-yl]pentan-1-one]", "IC50": "> 3000"}, {"smiles": "CCCCC(=O)c1cc2c(c(N3CCCC3=O)c1)NCCC2", "note": "[Compound Q-979, 1-(6-pentanoyl-1,2,3,4-tetrahydroquinolin-8-yl)pyrrolidin-2-one]", "IC50": 1150}, {"smiles": "CCCCC(=O)c1cc2c(c(OC3CCCC3)c1)NCCC2", "note": "[Compound Q-980, 1-[8-(cyclopentoxy)-1,2,3,4-tetrahydroquinolin-6-yl]pentan-1-one]", "IC50": "> 3000"}, {"smiles": "CCCCC(O)c1cc2c(c(NC(C)(C)C)n1)NCC(C(F)(F)F)C2", "note": "(centres unmarked) [Compound R-812, 1-[8-(tert-butylamino)-3-(trifluoromethyl)-1,2,3,4-tetrahydro-1,7-naphthyridin-6-yl]pentan-1-ol]", "IC50": 40}, {"smiles": "CCCCC(=O)c1cc2c(c(NC(C)(C)C)n1)NCC(C(F)(F)F)C2", "note": "(centres unmarked) [Compound R-830]", "IC50": 36}, {"smiles": "CC(C)(C)Nc1nc(OCC(F)(F)F)cc2c1NCC(C(F)(F)F)C2", "note": "(centres unmarked) [Compound S-101, N-tert-butyl-6-(2,2,2-trifluoroethoxy)-3-(trifluoromethyl)-1,2,3,4-tetrahydro-1,7-naphthyridin-8-amine]", "IC50": 1260}, {"smiles": "CCCCC(=O)c1cc2c(c(NC(C)(C)C)n1)NCCC2", "note": "[Compound S-168, 1-[8-(tert-butylamino)-1,2,3,4-tetrahydro-1,7-naphthyridin-6-yl]pentan-1-one]", "IC50": 13}]}]}
